Test results reported in patent US20150284331A1 (priority 2012, published 2015).
Numbering of substitutions follows the chain as printed. Like-named read-outs stand apart in the source and are kept apart here.

Key:
[1] = target: T1, cortex and hippocampus acetylcholinesterase of mice (Mus musculus, UniProt P21836); type: in vivo; settings: for Acetylcholinesterase activity (%) cortex / Acetylcholinesterase activity (%) hippocampus: 1 h, % of solvent control, Mean ± SEM
T1 construct: from tissue; host or cells: mouse cortex and hippocampus homogenate
T1 sequence (P21836 32-614): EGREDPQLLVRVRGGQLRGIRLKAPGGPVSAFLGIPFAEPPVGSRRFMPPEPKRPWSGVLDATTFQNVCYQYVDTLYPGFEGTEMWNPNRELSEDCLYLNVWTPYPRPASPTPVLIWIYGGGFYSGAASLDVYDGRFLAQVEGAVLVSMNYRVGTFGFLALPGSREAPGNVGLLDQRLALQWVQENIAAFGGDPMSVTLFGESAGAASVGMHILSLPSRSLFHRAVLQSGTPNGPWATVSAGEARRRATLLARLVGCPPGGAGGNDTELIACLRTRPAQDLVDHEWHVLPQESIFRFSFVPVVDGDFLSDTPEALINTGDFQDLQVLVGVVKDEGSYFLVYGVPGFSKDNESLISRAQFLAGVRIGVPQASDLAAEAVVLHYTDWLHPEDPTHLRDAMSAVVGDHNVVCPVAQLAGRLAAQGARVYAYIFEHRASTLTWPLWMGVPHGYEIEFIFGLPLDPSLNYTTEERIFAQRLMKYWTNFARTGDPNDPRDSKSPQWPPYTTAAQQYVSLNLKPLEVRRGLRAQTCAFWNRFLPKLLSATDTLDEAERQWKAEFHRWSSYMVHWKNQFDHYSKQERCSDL
Method: 5% DMSO was added and shaken sufficiently to dissolve the samples. Then 1% cosolvent EL (polyoxyethylated castor oil) was added and water was used to make up the remaining volumn to obtain 10 mg/mL sample. The samples were diluted gradually to 0.3 mg/mL, 1 mg/mL and 3 mg/mL. […] The samples were administrated orally according to 0.1˜mL/10 g of volumn to weight ratio. An equal amount of 5% DMSO and 1% EL solution was administered orally to the solvent control group.
(1) Acetylcholinesterase: mouse cortex and hippocampus. 1 h after orally administrated, the mice were decapitated. After the brains were taken out, the hippocampus and cortex were quickly stripped on the ice. To the cortex was added ice-cold 75 mM PBS, and homogenated to form 30× tissue homogenate and to the hippocampus was added ice-cold 75 mM PBS and homogenated to form 40× tissue homogenate. And finally 1/10 by volumn of OMPA was added and placed on the ice to be tested.
(2) Test Method: To the samples were added a reaction system containing PBS, H2O, S-Ach and DTNB. Except for the blank tube, to the rest of the tubes were added an appropriate amount of enzyme. The reaction was carried out at room temperature for 20 minutes. SDS was added to each tube to quench the reaction. An appropriate amount of enzyme was added to the blank tube. Absorbance of each tube was determined by UV-visible spectrophotometer (OD440 nm).

butyrylcholinesterase = target: T2, butyrylcholinesterase (Rattus norvegicus, UniProt Q9JKC1); experiment: inhibition of butyrylcholinesterase (rat serum); type: biochemical; settings: rat serum enzyme; final concentration 4×10−5 mol/L
T2 construct: Butyrylcholinesterase: rat serum; from tissue; host or cells: rat serum
Method: (§1) Sample processing: All samples were formulated as 10-2 mol/L solution by using 100% DMSO. 10-2 mol/L solution was used in microdetermination. 1 μL was taken to use in single tube experiment.
(§2) Solvent control: 0.4% DMSO was used in microdetermination. The inhibition ratio of the sample was obtained wherein the effect of solvent was deducted.
Butyrylcholinesterase: rat serum

KM mice = experiment: acute toxicities of compounds on mice; type: in vivo; settings: 100 mg/kg oral
Method: Sample processing: When getting samples, they were undissolved. […] The samples were suspensions. Experimental animals: KM mice, 22-29 g, half male and half female.
Experimental method: Mice were randomly divided into groups. 100 mg/kg of test compounds DC19 and DC20 were administered orally, respectively.

acetylcholinesterase = target: T3, acetylcholinesterase (Rattus norvegicus, UniProt P37136); experiment: biochemical; type: biochemical; settings: rat cortex enzyme
T3 construct: Acetylcholinesterase: rat cortex; from tissue; host or cells: rat cortex
T3 sequence (P37136 32-614): T1 sequence (P21836 32-614) with V59I, A109T, A128S, A144T, A271S, E313D, T392A, T467V, K478Q, Q499R
Method: as §1, §2
Acetylcholinesterase: rat cortex

T2 sequence (Q9JKC1 24-597): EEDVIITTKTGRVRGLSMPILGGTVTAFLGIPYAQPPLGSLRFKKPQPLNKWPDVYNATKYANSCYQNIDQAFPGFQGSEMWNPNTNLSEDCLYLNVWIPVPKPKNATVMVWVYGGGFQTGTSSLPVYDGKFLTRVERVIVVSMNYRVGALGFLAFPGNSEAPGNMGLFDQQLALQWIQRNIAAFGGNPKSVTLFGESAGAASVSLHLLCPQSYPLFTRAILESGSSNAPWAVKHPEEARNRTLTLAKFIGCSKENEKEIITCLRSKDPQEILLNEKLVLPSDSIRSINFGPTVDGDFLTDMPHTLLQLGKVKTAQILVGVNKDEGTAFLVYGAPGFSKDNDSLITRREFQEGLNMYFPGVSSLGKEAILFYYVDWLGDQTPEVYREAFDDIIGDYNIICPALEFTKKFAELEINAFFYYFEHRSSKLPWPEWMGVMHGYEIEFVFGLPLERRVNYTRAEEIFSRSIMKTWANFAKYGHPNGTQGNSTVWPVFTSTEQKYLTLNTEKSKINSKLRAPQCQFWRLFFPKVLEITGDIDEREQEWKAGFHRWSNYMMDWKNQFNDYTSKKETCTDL

For `COc1cc2c(cc1OC)C(=O)C(CC1(F)CCN(Cc3ccccc3F)CC1)C2` (stereo not shown) [DC20, 2-((4-fluoro-1-(2-fluorobenzyl)piperidin-4-yl)methyl)-5,6-dimethoxy-2,3-dihydro-1H-inden-1-one], the “inhibition of cortex acetylcholinesterase compared with the solvent control group” value ([1]; 0.3 mg/kg oral) was 14.67%, the “inhibition of hippocampus acetylcholinesterase compared with the solvent control group” value ([1]; 0.3 mg/kg oral) was 15.47% and the “Acetylcholinesterase activity (%) cortex” value ([1]; 0.3 mg/kg oral) was 85.33%. The “Acetylcholinesterase activity (%) hippocampus” value ([1]; 0.3 mg/kg oral) was 84.53%, the “inhibition effects on mouse cortex and hippocampus AChE compared with Donepezil” value ([1]; 1 mg/kg of DC20 versus 10 mg/kg Donepezil) was “comparable to those of 10 mg/kg of positive control drug Donepezil” and the “inhibition of cortex acetylcholinesterase compared with the solvent control group” value ([1]; 1 mg/kg oral) was 22.02%. For the same molecule, the “inhibition of hippocampus acetylcholinesterase compared with the solvent control group” value ([1]; 1 mg/kg oral) was 19.76%, the “Acetylcholinesterase activity (%) cortex” value ([1]; 1 mg/kg oral) was 77.98% and the “Acetylcholinesterase activity (%) hippocampus” value ([1]; 1 mg/kg oral) was 80.24%. The “inhibition effects on mouse cortex and hippocampus acetylcholinesterase (in words)” value ([1]; 1 mg/kg, 3 mg/kg and 10 mg/kg oral) was “significant inhibition effects”, the “inhibition of cortex acetylcholinesterase compared with the solvent control group” value ([1]; 3 mg/kg oral) was 42.95% and the “inhibition of hippocampus acetylcholinesterase compared with the solvent control group” value ([1]; 3 mg/kg oral) was 50.12%. The “Acetylcholinesterase activity (%) cortex” value ([1]; 3 mg/kg oral) was 57.05%, the “Acetylcholinesterase activity (%) hippocampus” value ([1]; 3 mg/kg oral) was 49.88% and the “inhibition of cortex acetylcholinesterase compared with the solvent control group” value ([1]; 10 mg/kg oral) was 66.02%. The “inhibition of hippocampus acetylcholinesterase compared with the solvent control group” value ([1]; 10 mg/kg oral) was 65.62%, the “Acetylcholinesterase activity (%) cortex” value ([1]; 10 mg/kg oral) was 33.98% and the “Acetylcholinesterase activity (%) hippocampus” value ([1]; 10 mg/kg oral) was 34.38%. For the same molecule, the “overall activity compared with Donepezil” value ([1]; mouse cortex and hippocampus AChE, oral) was “better than that of Donepezil”, the “butyrylcholinesterase inhibitory activity inhibition ratio (%)” value (butyrylcholinesterase) was 71.58% and the response symptoms (KM mice; female KM mouse) was 8 min, myasthenia, lacrimal. For the same molecule, the response symptoms (KM mice; male KM mouse) was 6 min, myasthenia, reduction in, the “time of death after administration” value (KM mice; male KM mouse) was “secretion, immobility; 24 h,” and the “acetylcholinesterase inhibitory activity inhibition ratio (%)” value (acetylcholinesterase; final concentration 4×10−5 mol/L) was 82.04%. For the same molecule, the IC50 (acetylcholinesterase; read-out: acetylcholinesterase inhibitory activity IC50 (nmol)) was 0.86 nM.
